Test results as given in US7223718B2, “Enhanced glyphosate herbicidal concentrates” (Falcon Lab LLC, priority 2005, dated 2007).

Test: Hygroscopicity: exposure to air on a balance for three days
Format: physicochemical
Settings: exposed to air on a balance
From the text: A mechanical mixture of 10 gm. of dry, solid isopropylammonium glyphosate and 20 gm. of dry, solid ammonium pelargonate was made by thoroughly grinding and mixing the two solids to assure a homogeneous powder. The resulting 30 gm. was exposed to the air in a weighing dish on a balance to determine if the mixture was hygroscopic or dry. […] To this mixture was further added 3 gm. of powdered 85% potassium hydroxide and the solids again thoroughly mixed. This solid mixture contained the equivalent of 30% isopropylammonium glyphosate and 60% ammonium pelargonate, being a solid enhanced glyphosate herbicide concentrate.
A 50 gm. portion of a 53.8% glyphosate solution as the isopropylammonium salt (Monsanto Aquamaster®) was placed in a glass shallow evaporating dish. To this was added 10 gm. of 28-30% ammonium hydroxide and the solution thoroughly mixed by slowly tilting the dish. The dish was then exposed to air at ambient conditions for 2 weeks during which time the water evaporated off leaving a white crystalline solid weighing 38.9 gm. […] By the method it was prepared and the yield obtained it was determined to be the mixed salt ammonium, (isopropylammonium)glyphosate. The melting point was 200-205° C. (isopropyl ammonium glyphosate melts at 155-158° C.) The FT-IR spectrum in KBr is: […]

Substance: ammonium, (isopropylammonium)glyphosate
- Hygroscopicity (weight change on exposure to air): non-hygroscopic
